Experimental data as given in patent US4732977A, “Carbapenem antibiotics” (priority 1986, dated 1988).
Counter-ions that a name gives are not always drawn.

Experiments:
P. morganii A15153 = test: M.I.C., tube dilution; type: cell-based; conditions: Morganella morganii, A15153
H. influenzae A-9833 = test: M.I.C., tube dilution; type: cell-based; conditions: Haemophilus influenzae, A9833; overnight incubation at 37° C., Nutrient Broth
E. coli A-15119 = test: Protective effect in intramuscular treatment of infected mice; type: in vivo; conditions: Escherichia coli, A15119, im, 3.5 h, read-out: PD50/Treatment
S. faecalis A-20688 = test: as above; type: in vivo; conditions: Enterococcus faecalis, A20688, im, i.m. 0 and 2 h postinfection, challenge 2.3 × 10^8 organisms, * = historical data, read-out: PD50/Treatment
E. coli A20341-1 = test: M.I.C., tube dilution; type: cell-based; conditions: Escherichia coli, A203411; 10^-4; read-out: MIC
[1] = Blood levels in mice after intramuscular administration;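 also: compounds dissolved in 0.1 M phosphate buffer at pH 7, data from one experiment using four mice for each compound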
From the text: Compounds were solubilized in 0.1 M phosphate buffer pH 7.
a single test; 4 mice used per compound.
Compounds were solubilized in 0.1 M phosphate buffer, pH 7.
on a single test; 4 mice per compound.

[2] = Urinary recovery after intramuscular administration to mice; type: in vivo; conditions: mouse, urine, im, 20 mg/kg, 20 mg/kg i.m.
From the text: | a single test; 4 mice per compound.

P. mirabilis A-9900 = test: Protective effect in intramuscular treatment of infected mice; type: in vivo; conditions: Proteus mirabilis, A9900, im, read-out: PD50/Treatment
Procedure: (§1) The PD50 (dose in mg/kg required to give protection to 50% of the infected mice) is indicated.
with drugs 0 and 2 hours postinfection.
(§2) The PD50 (dose in mg/kg) required to give protection to 50% of the infected mice is indicated.

P. vulgaris A21559 = test: M.I.C., tube dilution; type: cell-based; conditions: Proteus vulgaris, A21559, overnight incubation at 37° C., Nutrient Broth; read-out: MIC
S. faecalis A20688 = test: M.I.C., tube dilution; type: cell-based; conditions: Enterococcus faecalis, A20688, overnight incubation at 37° C., Nutrient Broth; read-out: MIC
[3] = Toxicity after intracranial administration to mice; conditions: mouse, in vivo
B. fragilis A22862 = test: M.I.C., tube dilution; type: cell-based; conditions: Bacteroides fragilis, overnight incubation at 37° C., Nutrient Broth
P. aeruginosa A-9843A [4] = test: M.I.C., tube dilution; type: cell-based; conditions: Pseudomonas aeruginosa, A9843A, overnight incubation at 37° C., Nutrient Broth
P. aeruginosa A-20481 = test: Protective effect in intramuscular treatment of infected mice; type: in vivo; conditions: Pseudomonas aeruginosa, A20481, im, i.m. 0 and 2 h postinfection, challenge 5.4 × 10^4 organisms, * = historical data, read-out: PD50/Treatment
E. coli A15119 = test: M.I.C., tube dilution; type: cell-based; conditions: Escherichia coli, A15119, 10^-4 dil.
P. aeruginosa A21213 = test: M.I.C., tube dilution; type: cell-based; conditions: Pseudomonas aeruginosa, A21213, overnight incubation at 37° C., Nutrient Broth; read-out: MIC
S. aureus A-9537 = test: M.I.C., tube dilution; type: cell-based; conditions: Staphylococcus aureus
P. aeruginosa A-9843a [5] = test: animal or person; type: in vivo, mice; conditions: Pseudomonas aeruginosa, A9843A, im; mice, i.m. 0 and 2 h postinfection; challenge 5.5 × 10^4 organisms; * = historical data; read-out: PD50/Treatment
Procedure: as §1
with drugs 0 and 2 hours postinfection.
as §2

B. fragilis A22053 = test: M.I.C., tube dilution; type: cell-based; conditions: Bacteroides fragilis, overnight incubation at 37° C., Nutrient Broth
S. aureus A-9606 = test: Protective effect in intramuscular treatment of infected mice; type: in vivo; conditions: Staphylococcus aureus, A9606, im, read-out: PD50/treatment
P. aeruginosa A-20599 = test: as above; type: in vivo; conditions: Pseudomonas aeruginosa, A20599, im, i.m. 0 and 2 h postinfection, challenge 1.4 × 10^5 organisms, * = historical data, read-out: PD50/Treatment
B. fragilis A22863 = test: M.I.C., tube dilution; type: cell-based; conditions: Bacteroides fragilis, overnight incubation at 37° C., Nutrient Broth
H. influenzae A21518 = test: M.I.C., tube dilution; type: cell-based; conditions: Haemophilus influenzae, overnight incubation at 37° C., Nutrient Broth
in vivo = conditions: mouse

## C[C@@H](O)[C@H]1C(=O)N2C(C(=O)[O-])=C(SCc3cc[n+](C)cc3)C[C@H]12 [Example 1, 1-Methyl-4-[2-carboxy-6α-[1(R)-hydroxyethyl]-7-oxo-1-azabicyclo[3.2.0]hept-2-en-3-thiomethyl]pyridinium hydroxide inner salt]
P. morganii A15153
  MIC: 0.13 µg/mL
H. influenzae A-9833
  MIC: 16 µg/mL
E. coli A-15119
  ED50: 0.6 mg/kg
S. faecalis A-20688
  ED50: 3.3 mg/kg
E. coli A20341-1
  MIC: 0.03 µg/mL
[1]; mice, 20 mg/kg i.m. (table 9)
  AUC: 6300 ng·h/mL
  T1/2: 10 min
[1]; mouse, blood, im, 20 mg/kg
  AUC: 6300 ng·h/mL
  Cmax: 14000 ng/mL
[1]; mouse, in vivo, im, 20 mg/kg
  half-life: 10 min
[2]; 0-3 hours
  dose excreted at 3 h: 26.1%
[2]; 0-24 hours
  dose excreted at 24 h: 26.7 ± 6.7%
[2]; 3-6 hours
  dose excreted at 6 h: 0.5%
[2]; 6-24 hours
  dose excreted at 24 h: 0.1%
P. mirabilis A-9900
  ED50: 3.3 mg/kg
P. vulgaris A21559
  MIC: 0.13 µg/mL
S. faecalis A20688
  MIC: 0.5 µg/mL
[3]
  LD50: 14 mg/kg
B. fragilis A22862
  MIC: 0.03 µg/mL
P. aeruginosa A-9843A [4]
  MIC: 4 µg/mL
P. aeruginosa A-20481
  ED50: 0.63 mg/kg
E. coli A15119
  MIC: 0.06 µg/mL
P. aeruginosa A21213
  MIC: 1 µg/mL
S. aureus A-9537; A9537, overnight incubation at 37° C., Nutrient Broth
  MIC: 0.13 µg/mL
S. aureus A-9537; A9537, +50% serum
  MIC: 0.03 µg/mL
P. aeruginosa A-9843a [5]
  ED50: 0.3 mg/kg
B. fragilis A22053
  MIC: 0.03 µg/mL
S. aureus A-9606
  ED50: 0.09 mg/kg
P. aeruginosa A-20599
  ED50: 0.7 mg/kg
B. fragilis A22863
  MIC: 0.03 µg/mL
H. influenzae A21518
  MIC: 16 µg/mL
In vivo
  NOAEL: 5 mg/kg
